Results taken from paper PMC5441580, “GPR40 partial agonist MK-2305 lower fasting glucose in the Goto Kakizaki rat via suppression of endogenous glucose production” (PLoS ONE, 2017).
Values joined by “and” are separate entries in the source; they are usually repeats but may differ in a detail not shown here. Identical values can stand only once.

Columns and labels:
rat GPR120 (FFAR4) = molecular target: T1, rat GPR120 (FFAR4) (Rattus norvegicus, UniProt Q2AC31); experiment: IP1 functional assay, HEK293 cells stably expressing rat GPR120; assay type: cell-based; conditions: individual experiments (raw data of Table 1)
T1 construct: expressed in transfected cells
T1 sequence (Q2AC31 1-361): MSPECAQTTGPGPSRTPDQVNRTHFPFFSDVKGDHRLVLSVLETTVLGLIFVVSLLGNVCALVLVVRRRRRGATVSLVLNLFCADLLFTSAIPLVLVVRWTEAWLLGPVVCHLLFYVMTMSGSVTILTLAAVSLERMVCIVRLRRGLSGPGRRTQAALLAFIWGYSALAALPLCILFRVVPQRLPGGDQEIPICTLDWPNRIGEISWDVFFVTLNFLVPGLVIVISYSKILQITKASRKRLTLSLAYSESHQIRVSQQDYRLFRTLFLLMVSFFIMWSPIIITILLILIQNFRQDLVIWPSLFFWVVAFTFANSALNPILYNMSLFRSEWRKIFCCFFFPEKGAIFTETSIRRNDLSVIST
Protocol: CHO Jump-IN cells stably expressing rat GPR40 or HEK293 Jump-IN cells stably expressing rat GPR120 were cultured in DMEM media supplemented with 10% dialyzed FBS, non-essential amino acids, penicillin/streptomycin, 10 μg/ml Blasticidin S HCL and 200 or 100 μg/ml Hygromycin B, respectively (Life Technologies). Cell stocks were maintained and grown in a sub-confluent state using standard cell culture procedures. The day before the experiment, the cells were harvested with non-enzymatic cell dissociation buffer and re-suspended in DMEM supplemented as described above at 0.15 million cells per ml. […] The seeded plates were incubated overnight at 37°C in a humidified environment.
On the day of the experiment, the growth media was removed from the assay plate by centrifugation using a BlueCatBio BlueWasher, protocol #21 “Light Dry” and 10 μl of IP1 stimulation buffer (prepared according to the Cisbio IP-one Tb HTRF kit) is added to each well. Test compounds were dissolved and serially diluted in DMSO as 200X the final assay concentration and 50 nl of the compound dilution was acoustically added to each well of the assay plates. The plates were then incubated for 60 minutes at room temperature and 10 μl of detection buffer (prepared according to the IP-one Tb HTRF kit) is added to each well of the assay plate. […] Maximal % activation and EC50 are then determined for each test compound.

GK rats = experiment: endogenous glucose production in vivo, 2H/13C dual tracer, chronic treatment, GK rats; set-up: species or system rat; conditions: 10 mg/kg, individual animals
Protocol: To evaluate whether MK-2305 treatment produced an effect on EGP in vivo, a ^2H/^13C dual tracer approach was used to calculate EGP and its contributing sources. On the day of the study, GK rats were bled via tail snip, and blood glucose was measured via glucometer. Ambient glucose was measured at 8 A.M. and used to sort animals into treatment groups (n = 8 per group). 0.9% NaCl salinated D2O (Sigma-Aldrich, St. Louis, MO) was administered to all animals via IP injection at dose volume of 20 ml/kg. Animals were then placed in clean cages and food was removed. After a 5 hour fast, blood glucose was measured and animals were dosed PO with MK-2305 at 10 mg/kg (5 ml/kg) or vehicle (0.5% methylcellulose) immediately followed by 50 mg/kg [U-^13C] glucose (Sigma-Aldrich) IP at 5 ml/kg. Blood was collected via tail snip at time points from 60–150 min post treatment to measure blood glucose as well as endogenous (^12C-glucose) and exogenous (^13C-glucose) via GCMS. Following the last tail blood collection, rats were anesthetized with isoflurane and cardiac blood was collected into K2EDTA tubes (Becton, Dickinson and Co., Franklin Lakes, NJ).
The serially collected blood samples were analyzed for ^13C-glucose enrichment using GC-MS analysis. The % ^13C glucose enrichments were then combined with the total glucose readings to calculate the concentration of ^13C-glucose, and these values were modeled with a two-compartment model of whole body glucose metabolism to calculate the average EGP for the period from 0–150 minutes.
Terminal blood samples were analyzed for relative ^2H enrichment in plasma glucose using the monoacetone glucose method. Briefly, samples were extracted with 70% perchloric acid and centrifuged at 25,000 rcf for 10 min at 4°C. The supernatant was collected and the pH was adjusted to 6–8 using KOH. The samples were then lyophilized overnight. To convert plasma glucose to monoacetone glucose (MAG), acetone and concentrated sulfuric acid were added to the lyophilized samples and stirred for 4 hours at room temperature. Water was then added and the pH adjusted to 2.0 with 3M Na2CO3. Samples were stirred moderately for 18 hours at room temperature, the pH was adjusted to 7 with 3M Na2CO3, and the samples were completely dried by speed vacuum concentration. The resulting MAG samples were then extracted in hot ethyl acetate, dried overnight under a stream of N2 gas, purified using Discovery DSC-18 SPE columns (6 ml, 1 g bed weight), and freeze dried. […] The ^2H NMR spectra of the MAG samples were then analyzed using in–house developed Matlab (The Mathworks Inc, Natick, MA) to model the NMR peaks with a Lorentzian line shape, and the results were used to calculate integrals for each of the seven NMR resonances in the MAG spectrum. […]

[1] = plasma exposure of the compounds on day 14 of the chronic study; assay type: in vivo, rat; conditions: day 14, similar at fed and fasted time points, GK rats
Protocol: At the start of the study, fed glucose was measured at 8 A.M., and animals were selected and sorted into treatment groups based on ambient glucose (n = 10/male GK group, n = 6/male WKY control group). Animals were then placed on diet (LabDiet # 5001) that contained, or was devoid of, compound at the daily doses indicated. Fed blood glucose, food intake, and body weights were determined on days 0, 1, 3, 7, and 14 of study at 8 A.M. On days 7 and 14, food was removed for 5 h and plasma glucose was measured. Percent inhibitions were calculated as the percent reduction of blood glucose from the average value for vehicle controls. On day 14, blood was collected from the tail vein (20 μl) after the morning glucose measurement and after 5 h fast from a subset of n = 3 rats per treatment group to determine the ambient and fasted exposure of the compounds in circulation. The blood was stored at 4°C in 0.1 M sodium monocitrate for subsequent analysis. Animals were then re-fed their respective diet treatments. On day 20 of treatment at 8 A.M., blood glucose was measured and then animals were euthanized via CO2 asphyxiation. Blood and liver tissue were sampled, processed, and stored at -80°C until analysis.

## O=C1NC(=O)C(C2CCOc3cc(Oc4ccc(C(F)(F)F)cc4Cl)ccc32)S1 (centres unmarked) [MK-2305]
Rat GPR120 (FFAR4)
  % Activation: -22% and -18% and -16% and 8%
  EC50: > 10 µM
GK rats
  Glucose Production, GNG Glycerol: 9.192 µmol/kg/min and 6.083 µmol/kg/min and 7.998 µmol/kg/min and 7.217 µmol/kg/min and 7.842 µmol/kg/min and 8.659 µmol/kg/min and 3.467 µmol/kg/min and 8.678 µmol/kg/min
  Glucose Production, GNG TCA: 36.7882 µmol/kg/min and 38.5819 µmol/kg/min and 33.1225 µmol/kg/min and 31.7162 µmol/kg/min and 37.3311 µmol/kg/min and 31.203 µmol/kg/min and 37.9138 µmol/kg/min and 30.2175 µmol/kg/min
  Glucose Production, GNG Total: 45.9798 µmol/kg/min and 44.6651 µmol/kg/min and 41.1202 µmol/kg/min and 38.9333 µmol/kg/min and 45.1729 µmol/kg/min and 39.8625 µmol/kg/min and 41.3808 µmol/kg/min and 38.8959 µmol/kg/min
  Glucose Production, Glycogenolysis: 21.2266 µmol/kg/min and 17.3215 µmol/kg/min and 19.9927 µmol/kg/min and 20.4645 µmol/kg/min and 22.2628 µmol/kg/min and 19.9186 µmol/kg/min and 23.4568 µmol/kg/min and 19.0453 µmol/kg/min
[1]; 10 mg/kg in feed
  plasma exposure: ~ 15 μM
[1]; 30 mg/kg in feed
  plasma exposure: ~ 39 μM
